Assays:
[1] = Metabolic intrinsic clearance in monkey hepatocytes; format: in vitro ADME, cynomolgus monkey; conditions: cryopreserved hepatocytes in suspension, pH 7.5, 0.5 million cells/mL, incubation for 4 hours
Description: The metabolic intrinsic clearance (CLint) of Compound 87 was determined in human, monkey, dog, rat, and mouse hepatocytes. Cryopreserved human hepatocytes (Lot Hue50c), monkey hepatocytes (cynomolgus; Lot Cy328), dog hepatocytes (beagle, Lot Db235), rat hepatocytes (Sprague Dawley; NNH), and mouse hepatocytes (CD-1; Lot Mc522) were obtained from ThermoFisher (Paisley, UK). In separate experiments, compound 87 (1 μM) was incubated with hepatocytes from each species (0.5 million cells/mL, suspension) in Dulbecco's Modified Eagle's Medium (DMEM) supplemented with 4-(2-Hydroxyethyl)piperazine-1-ethanesulfonic acid (HEPES, 9 mM) and fructose (2.2 mM) (pH 7.5). Samples were quenched with acetonitrile and analyzed by LC-MS/MS. The mean CLint for Compound 87 in human, monkey, dog, rat, and mouse hepatocytes after incubation for 4 hours was determined to be ≤2.5, ≤2.5, 7.2, 23.6 and 10.7 μL/min/million cells. Based on these date, Compound 87 was low to moderately metabolized in hepatocytes in mouse, rat, dog, monkey, and human, and the rank order of stability at […] was approximately human>monkey>dog>mouse>rat. […] The metabolic stability of Compound 87 was not expected.

[2] = test system: ALD patient fibroblasts; assay: Reduction in C26:0 LPC in ALD patient fibroblasts in vitro; format: cell-based, human; conditions: Patient Fibroblast (CALD 1), half maximal reduction in C26:0 LPC, each number a separate measurement
Description: Lysophosphatidylcholine (LPC) VLCFA were generated from straight chain VLCFA (SC-VLCFA) and were used clinically for newborn screening (Vogel et al., Mol. Genet. Metab. (2015) 114(4):599-603). In vitro efficacy studies were performed by measuring LPC VLCFA level (measured as LPC synthesis) in various cell lines, specifically in 1) human HEK cells, 2) patient derived cells, and 3) human microglia, which are disease relevant CNS cells. Compound 87's dose response relationships and IC50 values were measured in HEK cells, primary patient fibroblasts, immortalized patient lymphocytes, and a human microglial cell line. […]
Primary patient fibroblasts were obtained from Coriell Institute for Medical Research. […] The plate was sealed with a plate tape and put at −80° C. for further VLCFA extraction and VLCFA quantitation on LC-MS, as described below.
VLCFA Extraction and Quantitation on LCMS:
Treated cells were transferred to a polypropylene v-bottom plate and then centrifuged at 1690×g for 10 minutes. […] The plates were then sealed with pierceable capmats (Micronic MP53017) and stored at −20° C. until further analyzed using UPHLC/Mass Spectrometry Readout, as described above in example 2.1, which measured the integration of ^13C into lysophosphatidylcholine (LPC) indicated fatty acid elongation. […]

hepatocyte CLint at 1 μM [1]: ≤ 2.5 µL/min/1e6 cells
Compound: O=C(Nc1ccn(-c2ccnc(F)c2)n1)C1(c2ccccc2F)CC1 [Compound 87, 1-(2-fluorophenyl)-N-[1-(2-fluoro-4-pyridyl)pyrazol-3-yl]cyclopropanecarboxamide]
IC50 ([2]; Homo sapiens, Fibroblast): 17 nM | IC50 [2]: 23 nM
